Assays:
[1] = target: T1, NR4A2 (Homo sapiens, UniProt P43354); assay: NR4A2 protein level after treatment (immunoblotting); type: cell-based
T1 construct: endogenous in cells
Procedure: Samples were lysed using radioimmunoprecipitation assay buffer (RIPA) lysis buffer (150 mM NaCl, 5 mM EDTA, 50 mM Tris pH 8.0, 0.5% sodium deoxycholate, 1% NP-40, 0.1% SDS) supplemented with 1 mM dithiothreitol and protease inhibitors. The lysates were separated by SDS-PAGE and analyzed using standard western blotting procedures ([Khan et al., 2019]). Antibodies: human NR4A1 (ab153914, 1:1,000; Abcam), mouse NR4A1 (14-5965-82, 1:1,000; Invitrogen), NR4A2 (AV38753, 1:1,000; Sigma-Aldrich), NR4A3 (TA804893, 1: 1,000; Thermo Fisher Scientific), VHL (68547, 1:1,000; Cell Signaling), β-actin (13E5, 1:5,000; Cell Signaling), β-tubulin (9F3, 1: 5,000; Cell Signaling), and GAPDH (D16H11, 1: 5,000; Cell Signaling) were employed for protein detection.

[2] = tested on: NR4A1 mRNA; assay: NR4A1 mRNA by qPCR in CHL-1 cells; type: cell-based, human; details: 500 nM, ACTB as control
Procedure: Total RNA was extracted from cells using RNeasy Kits (74004; QIAGEN) following the manufacturer’s instructions. cDNA synthesis was performed using SuperScript III Reverse Transcriptase (18080044; Thermo Fisher Scientific) with 100 ng RNA as the template. Amplification of cDNA was carried out using 2× PowerUP SYBR Green Master Mix (A25778; Thermo Fisher Scientific). Each reaction was conducted in triplicates and results were normalized to the expression of a housekeeping gene. Primer (Eurofins): human β-actin (forward sequence: 5′-CACCATTGGCAATGAGCGGTTC-3′; reverse sequence: 5′-AGGTCTTTGCGGATGTCCACGT-3′) and human NR4A1 (forward sequence: 5′-GGACAACGCTTCATGCCAGCAT-3′; reverse sequence: 5′-CCTTGTTAGCCAGGCAGATGTAC-3′).

[3] = tested on: human CD8^+ Texh cells; assay: T cell exhaustion in vitro, human PBMC-derived T cells; type: cell-based; details: 500 nM, 48 h
Procedure: We conducted experiments involving the isolations and treatments of CD8^+ T cells from both OT-1 mice (C57BL/6-Tg(TcraTcrb)1100Mjb/J; Jackson Laboratories) and T cells from human PBMCs. CD8^+ T cells were isolated from OT-1 mice using the EasySep Mouse CD8 T Cell Isolation Kit, followed by daily treatment with 10 ng/ml ovalbumin (257–264) (S7951-1MG; Sigma-Aldrich) for specified durations. After 3 days of ovalbumin treatment, OT-1 CD8^+ T cells were activated, and after 7 days of treatment, they reached a state of exhaustion. Human T cells were isolated from PBMCs using the EasySep Human CD3 Positive Selection Kit II (17851; STEMCELL) and cultured with Dynabeads (Cell/Dynabeads: 1:1, A56992; Thermo Fisher Scientific) for 3 days to induce activation and for 7 days to induce exhaustion. Both mouse and human T cells received a treatment of 500 nM NR-V04 2 days prior to harvesting. To characterize the T cell subtypes, we employed specific flow cytometry antibodies and conducted flow cytometry analysis.
Mouse tumors were excised and ∼200 mg of tumor tissue was enzymatically and mechanically digested using the mouse Tumor Dissociation Kit (Miltenyi Biotec) to obtain a single-cell suspension. […] Flow cytometry was performed on a three laser Cytek Aurora Cytometer (Cytek Biosciences) and analyzed using FlowJo software (BD Biosciences). […]

T1 sequence (P43354 whole entry): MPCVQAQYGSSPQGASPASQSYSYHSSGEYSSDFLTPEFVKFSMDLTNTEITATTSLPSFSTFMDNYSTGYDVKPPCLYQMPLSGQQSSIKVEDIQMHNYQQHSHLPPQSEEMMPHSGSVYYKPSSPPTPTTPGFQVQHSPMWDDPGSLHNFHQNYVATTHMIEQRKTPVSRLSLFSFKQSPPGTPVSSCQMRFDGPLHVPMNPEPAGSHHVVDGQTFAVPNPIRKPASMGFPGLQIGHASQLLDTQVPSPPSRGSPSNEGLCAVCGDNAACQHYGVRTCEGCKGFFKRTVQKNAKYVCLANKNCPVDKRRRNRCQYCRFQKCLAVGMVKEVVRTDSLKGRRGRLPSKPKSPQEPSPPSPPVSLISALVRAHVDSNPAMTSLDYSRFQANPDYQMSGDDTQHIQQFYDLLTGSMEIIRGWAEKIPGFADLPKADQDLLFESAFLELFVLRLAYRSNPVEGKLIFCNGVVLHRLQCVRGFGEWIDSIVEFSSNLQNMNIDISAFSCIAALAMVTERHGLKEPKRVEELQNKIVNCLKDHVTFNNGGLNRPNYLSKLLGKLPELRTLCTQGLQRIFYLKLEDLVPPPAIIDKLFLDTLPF

SMILES: CC1=C(O)C(=O)C=C2C1=CC=C1[C@@]2(C)CC[C@@]2(C)[C@@H]3C[C@](C)(C(=O)NCCOCCOCCOCCOCC(=O)N[C@H](C(=O)N4C[C@H](O)C[C@H]4C(=O)N[C@@H](C)c4ccc(-c5scnc5C)cc4)C(C)(C)C)CC[C@]3(C)CC[C@]12C [NR-V04]
- NR4A2 protein level (selectivity in the NR4A family) [1]: sparing NR4A2 and NR4A3
- NR4A1 mRNA level [2]: increased NR4A1 mRNA after 4 h
- CD8^+ Texh cells (CD8^+CTLA-4^+Tim3^+) [3]: significant reduction in CD8^+ Texh cells

Source: article PMC10857906, “PROTAC-mediated NR4A1 degradation as a novel strategy for cancer immunotherapy” (The Journal of Experimental Medicine, 2024)
